The values that follow come from publication PMC8160210, “Single tryptophan Y160W mutant of homooligomeric E. coli purine nucleoside phosphorylase implies that dimers forming the hexamer are functionally not equivalent” (Scientific Reports, 2021).

Experiment [1] addresses T1, WT E. coli PNP (Escherichia coli, UniProt P0ABP8).
T1 construct: made in house
T1 sequence (P0ABP8 2-239 limits assumed): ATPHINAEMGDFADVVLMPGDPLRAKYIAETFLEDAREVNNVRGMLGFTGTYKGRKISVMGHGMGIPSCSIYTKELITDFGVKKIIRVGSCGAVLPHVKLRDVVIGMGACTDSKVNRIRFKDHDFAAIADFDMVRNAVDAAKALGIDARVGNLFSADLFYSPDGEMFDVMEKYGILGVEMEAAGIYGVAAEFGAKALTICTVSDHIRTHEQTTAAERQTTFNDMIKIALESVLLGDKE
Further details: method as in PMID 30337572. As to conditions: phosphate as variable substrate, 250 μM m^7Guo, allostery Eq. (2), cited from earlier work.

The target of experiment [2] is T1, WT E. coli PNP. Nature of the experiment: Thermophoretic (MST) titrations with phosphate. The settings on record: two-binding-site model, 25 °C. The method, then: Measurements were performed with Monolith NT115 (NanoTemper). Enzyme was labelled with NT647 fluorescent dye (NanoTemper) according to the protocol provided by the manufacturer. Labelled proteins show fluorescence excitation and emission maxima of approximately 650 and 670 nm, respectively. The series of titrations were performed at a constant protein concentration. Both proteins (WT and mutant), and ligands were dissolved in 50 mM Tris/HCl pH 7.6 buffer, measurements were performed at 25 °C. […] In the pre-experiments, it was carefully checked for both proteins, WT and Y160W mutant whether any sign of aggregation or inactivation occurs, and if mutant behaviour is similar to that of the WT enzyme. […]
For experiments of the binary complex formation with phosphate, curves were measured at four different powers of the heating laser. Two to five titrations at each heating power were measured, and curves were averaged for a particular heating power. […] This is an area inaccessible in fluorescence titration due to the quenching of the protein fluorescence at such a high ionic strength of the solution. […]
Titration series were analysed globally, always starting from the simplest, one-binding-site model. […] For all tested models the Akaike information criterion[23] was also calculated. […]

SMILES strings stand for the structures. Like-named read-outs stand apart in the source and are kept apart here.

As usually defined, the Km is the substrate concentration at which the rate is half of its maximum.

On to `O=P(O)(O)O` [Pi, Orthophosphate], for which, at WT E. coli PNP [1] (pH 7.0, 25 °C), the Michaelis constant (Km) was 15 ± 4 µM and the Vmax is reported as 10.8 ± 0.7 U/mg. Further, at WT E. coli PNP [1], the “a (cooperativity coefficient, KM2 = aKM1)” value was 267 ± 232 and the “b (cooperativity coefficient, Vmax2 = bVmax1)” value is listed as 0.76 ± 0.06. Besides, the Kd at WT E. coli PNP [2] (50 mM Tris/HCl pH 7.6, read-out: Kd1 ± SD) was 7 µM. Also, the Kd on WT E. coli PNP [2] (50 mM Tris/HCl pH 7.6, read-out: Kd3 ± SD) turned out to be 1640 µM.
